From patent publication US10435642B2, “Ionic liquids containing symmetric quaternary phosphonium cations and phosphorus-containing anions, and their use as lubricant additives” (UT-Battelle, LLC, priority 2014, dated 2019)

Assays:
[1] = Density measurement of ionic liquids; assay type: physicochemical; conditions: neat ionic liquid
Procedure: (§1) Density and Viscosity Measurements
(§2) The density and viscosity of [P8888][DEHP] were measured and compared with those of [P66614][DEHP] and [P44414][DEHP].

[2] = Viscosity measurement of ionic liquids; assay type: physicochemical
Procedure: as §1, §2

[3] = Corrosion test: droplet of ionic liquid on grey cast iron; conditions: observation in the corrosion test
From the text: A droplet of each IL was placed on the surface of a piece of grey cast iron.

[4] = Thermogravimetric analysis (TGA) thermal stability in air; assay type: physicochemical
From the text: ZDDP, when decomposed, left about a 20% solid residue (“ash”) because of its zinc content. In contrast, all decomposition products of the ionic liquids were gaseous, thus confirming their “ashless” nature.

For “tetraoctylphosphonium bis(2-ethylhexyl)phosphate [[P8888][DEHP]]”, the “ρ (density)” value [1] was 0.86 g/cc, the “η (viscosity) 40° C.” value [2] was 608 cP and the “η (viscosity) 100° C.” value [2] was 68 cP. The “Oil-solubility in ExxonMobil PAO 4 cSt base oil” value (ExxonMobil PAO 4 cSt base oil) was >50 wt %.

In the case of “tributyltetradecylphosphonium bis(2-ethylhexyl)phosphate [[P44414][DEHP]]”, the “Hydrophobicity compared to the other ionic liquids” value [3] is reported as “lower hydrophobicity”, the “ρ (density)” value [1] is reported as 0.88 g/cc and the “η (viscosity) 40° C.” value [2] is reported as 252 cP. For the same substance, the “η (viscosity) 100° C.” value [2] was 25 cP, the “Oil-solubility in Chevron SAE 10 W base oil” value (Chevron SAE 10 W base oil) was <1 wt % and the “Oil-solubility in Shell GTL 4 cSt base oil” value (Shell GTL 4 cSt base oil) was <1 wt %.

In the case of “trihexyltetradecylphosphonium bis(2-ethylhexyl)phosphate [[P66614][DEHP]]”, the “ρ (density)” value [1] is reported as 0.91 g/cc, the “η (viscosity) 40° C.” value [2] is reported as 390 cP and the “η (viscosity) 100° C.” value [2] is reported as 45 cP.

In the case of zinc dialkyldithiophosphate [ZDDP], the “Solid residue (ash) after decomposition” value [4] is reported as ~20%.
